Test results published in ChEMBL document CHEMBL4476868, “Benzimidazole derivatives and uses thereof” (2017).

molecular target: Acetyl-coenzyme A synthetase, cytoplasmic (Homo sapiens, UniProt Q9NR19); test: Inhibition of N-terminal 6x-histidine tagged human ACSS2 expressed in insect cells assessed as reduction in pyrophosphate production using CoA and ATP incubated for 30 mins by pyrophosphatase coupled enzymatic assay
Sequence (Q9NR19 whole entry): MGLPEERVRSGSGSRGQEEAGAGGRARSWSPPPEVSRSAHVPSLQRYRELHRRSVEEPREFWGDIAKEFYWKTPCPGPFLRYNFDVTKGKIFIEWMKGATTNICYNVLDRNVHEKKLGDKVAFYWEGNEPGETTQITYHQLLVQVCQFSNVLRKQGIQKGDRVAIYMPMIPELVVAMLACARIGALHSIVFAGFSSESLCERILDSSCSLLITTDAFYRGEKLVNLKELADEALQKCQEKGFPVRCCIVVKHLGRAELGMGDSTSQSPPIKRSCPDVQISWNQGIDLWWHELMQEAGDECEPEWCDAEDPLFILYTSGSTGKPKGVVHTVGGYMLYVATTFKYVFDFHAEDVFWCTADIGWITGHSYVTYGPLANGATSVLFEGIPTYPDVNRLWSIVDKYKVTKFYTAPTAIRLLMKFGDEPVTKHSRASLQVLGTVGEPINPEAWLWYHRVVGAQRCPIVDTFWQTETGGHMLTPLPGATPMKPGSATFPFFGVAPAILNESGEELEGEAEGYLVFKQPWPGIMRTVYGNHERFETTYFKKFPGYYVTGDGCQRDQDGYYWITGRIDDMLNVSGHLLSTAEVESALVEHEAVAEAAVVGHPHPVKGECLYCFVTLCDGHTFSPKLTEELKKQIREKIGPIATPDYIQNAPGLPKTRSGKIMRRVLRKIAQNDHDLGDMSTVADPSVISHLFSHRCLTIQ

| Compound | IC50 [nM] |
| --- | --- |
| CCn1c(C(O)(c2ccc(F)cc2)c2ccc(F)cc2)nc2ccc(C(=O)NC)cc21 | 250 to 1000 |
| CCn1c(C(O)(c2ccccc2)c2ccccc2)nc2ccc(C3(O)COC3)cc21 | 250 to 1000 |
| CCS(=O)(=O)c1ccc2nc(C(O)(c3ccccc3)c3ccccc3)n(C)c2c1 | 50 to 249 |
| CCN1CCC[C@H](NC(=O)c2ccc3nc(C(O)(c4ccccc4)c4ccccc4)n(CC)c3c2)C1 | 250 to 1000 |
| CCn1c(C(O)(c2ccccc2)c2ccccc2)nc2ccc(C(=O)N3CCN(C)CC3)cc21 | > 1000 |
| CCn1c(C(O)(c2ccccc2)c2ccccc2)nc2ccc(CC(O)CO)cc21 (configuration not stated) | 50 to 249 |
| CCn1c(C(O)(c2ccc(C)cc2)c2ncccc2C)nc2ccc(CCCO)cc21 (configuration not stated) | 250 to 1000 |
| CCn1c(C(O)(c2ccccc2)c2ccccc2)nc2ccc(C(=O)N3CCC(N)CC3)cc21 | > 1000 |
| Cn1ccc(NC(=O)c2ccc3nc(C(O)(c4ccccc4)c4ccccc4)n(CCO)c3c2)n1 | 50 to 249 |
| CCn1c(C(O)(c2ccccc2)c2ccccc2)nc2cccc(F)c21 | > 1000 |
| CCn1c(C(O)(c2ccccc2)c2ccccc2)nc2ccc(C(=O)NOCCO)cc21 | 50 to 249 |
| CCn1c(C(O)(c2ccccc2)c2ccccc2)nc2ccc(C(=O)NC[C@H](O)CO)cc21 | 50 to 249 |
| CCn1c(C(O)(c2ccccc2)c2ccccc2)nc2cccc(OC)c21 | > 1000 |
| Cn1c(C(O)(c2ccccc2F)c2ccccc2F)nc2ccc(C(=O)NCCO)cc21 | 50 to 249 |
| CNC(=O)c1ccc2nc(C(O)(c3ccccc3)c3ccccc3)n(C3CC3)c2c1 | 250 to 1000 |
| CCn1c(C(O)(c2ccccc2)c2ccccc2)nc2ccc(C(=O)N[C@H]3CCC(=O)N(C)C3)cc21 | 50 to 249 |
| Cc1ccc2c(c1)nc(C(O)(c1ccccc1)c1ccccc1)n2C | 250 to 1000 |
| CCn1c(C(O)(c2ccccc2)c2ccccc2)nc2cc(F)c(C(=O)NC)cc21 | 50 to 249 |
| CCn1c(C(O)(c2ccccc2)c2ccccc2)nc2ccc(C(=O)NC[C@H](C)O)c(F)c21 | 50 to 249 |
| CCn1c(C(O)(c2ccccc2)c2ccccc2)nc2ccc(C(=O)NCCO)cc21 | 250 to 1000 |
| C=CCC(CO)(CO)c1ccc2nc(C(O)(c3ccccc3)c3ccccc3)n(CC)c2c1 | 250 to 1000 |
| CCC(O)CNC(=O)c1ccc2nc(C(O)(c3ccccc3)c3ccccc3)n(CC)c2c1 (configuration not stated) | 50 to 249 |
| CCn1c(C(O)(c2ccccc2)c2ccccc2)nc2ccc(OCc3ccccc3)cc21 | 250 to 1000 |
| CCn1ccc(-c2cc3c(cc2F)nc(C(O)(c2ccccc2)c2ccccc2)n3CC)n1 | 250 to 1000 |
| Cc1cccnc1C(O)(c1ccccc1)c1nc2ccc(C(=O)NC[C@@H](C)O)cc2n1C (some centres not stated) | 250 to 1000 |

| Compound | IC50 [nM] |
| --- | --- |
| CCn1c(C(O)(c2ccccc2)c2ccccc2)nc2ccc(S(=O)(=O)NC[C@@H](C)O)cc21 | 50 to 249 |
| CCn1c(C(O)(c2ccc(C)cc2)c2ncccc2F)nc2ccc(CCCO)cc21 (configuration not stated) | 250 to 1000 |
| CNC(=O)c1ccc2nc(C(O)(c3ccc(F)cc3)c3ccc(F)cc3)n(C)c2c1 | 250 to 1000 |
| CCn1c(C(O)(c2ccccc2)c2ccccc2)nc2ccc(CNC(=O)CO)cc21 | 50 to 249 |
| CCn1c(C(O)(c2ccc(F)cc2F)c2ncccc2C)nc2ccc(CCCO)cc21 (configuration not stated) | > 1000 |
| C[C@@H](O)CNC(=O)c1ccc2nc(C(O)(c3ccc(F)cc3)c3ccc(F)cc3)n(C)c2c1 | 250 to 1000 |
| CCn1c(C(O)(c2ccccc2)c2ccccc2)nc2c(OC)cc(C(=O)NC[C@@H](C)O)cc21 | 250 to 1000 |
| C[C@@H](O)CNC(=O)c1ccc2nc(C(O)(c3ccccc3)c3ccccc3)n(CC(F)(F)F)c2c1 | 250 to 1000 |
| Cn1c(C(O)(c2ccccc2)c2cccc(C(=O)NCCO)c2)nc2ccc(Cl)cc21 (configuration not stated) | > 1000 |
| CCOc1ccc2nc(C(O)(c3ccccc3)c3ccccc3)n(CC)c2c1 | 250 to 1000 |
| CN1C[C@@H](NC(=O)c2ccc3nc(C(O)(c4ccccc4)c4ccccc4)n(C)c3c2)CCC1=O | 50 to 249 |
| CCn1c(C(O)(c2ccccc2)c2ccccc2)nc2ccc(C(=O)NC3(C#N)CC3)cc21 | 50 to 249 |
| CCn1c(C(O)(c2ccccc2)c2ccccc2)nc2cnc(OCCCO)cc21 | 250 to 1000 |
| Cn1cc(NC(=O)c2ccc3nc(C(O)(c4ccccc4)c4ccccc4)n(CCO)c3c2)cn1 | 50 to 249 |
| Cc1cccnc1C(O)(c1ccc(F)cc1)c1nc2ccc(C(=O)NC[C@@H](C)O)cc2n1C (some centres not stated) | 250 to 1000 |
| C[C@@H](O)CNC(=O)c1ccc2nc(C(O)(c3ccccc3)c3ccccc3)n(CC3CCOCC3)c2c1 | > 1000 |
| CCn1c(C(O)(c2ccccc2)c2ccccc2)nc2cc(OCCO)ncc21 | 50 to 249 |
| CCn1c(C(O)(c2ccccc2)c2ccccc2)nc2ccc(CC(CO)CO)cc21 | 50 to 249 |
| CCn1c(C(O)(c2ccccc2)c2ccccc2)nc2ccc(C3(O)CCC3)cc21 | > 1000 |
| CCn1c(C(O)(c2ccccc2)c2ccccc2)nc2ccc(C)c(OC)c21 | 250 to 1000 |
| CCn1c(C(O)(c2ccccc2F)c2ncccc2F)nc2ccc(CCCO)cc21 (configuration not stated) | 50 to 249 |
| CCn1c(C(O)(c2ccccc2)c2ccccc2)nc2cccc(C)c21 | > 1000 |
| CCn1c(C(O)(c2ccccc2)c2ccccc2)nc2ccc(C)c(F)c21 | 250 to 1000 |
| CCn1c(C(O)(c2ccccc2)c2ccccc2)nc2ccc(CNC(=O)[C@@H](C)O)cc21 | 250 to 1000 |
| CCn1c(C(O)(c2ccccc2)c2ccccc2)nc2cnc(OCCO)cc21 | 250 to 1000 |

| Compound | IC50 [nM] |
| --- | --- |
| CCn1c(C(O)(c2ccccc2)c2ccccc2)nc2ccc(C(O)CO)cc21 (configuration not stated) | 50 to 249 |
| CCn1c(C(O)(c2ccccc2)c2ccccc2)nc2ccc(C(=O)NC3CCC3)cc21 | 250 to 1000 |
| CCn1c(C(O)(c2ccccc2)c2ccccc2)nc2ccc(C3(O)CCCCC3)cc21 | 250 to 1000 |
| CCn1cc(-c2ccc3nc(C(O)(c4ccccc4)c4ccccc4)n(CC)c3c2)cn1 | 50 to 249 |
| CCc1cccc(OCc2ccc3nc(C(O)(c4ccccc4)c4ccccc4)n(CC)c3c2)c1 | 50 to 249 |
| CCOc1cccc2nc(C(O)(c3ccccc3)c3ccccc3)n(CC)c12 | > 1000 |
| CCn1c(C(O)(c2ccccc2)c2ccccc2)nc2ccc(C(=O)NC(C)C)cc21 | 250 to 1000 |
| CC(C)Cn1c(C(O)(c2ccccc2)c2ccccc2)nc2ccc(C(=O)NC[C@@H](C)O)cc21 | 50 to 249 |
| CCn1c(C(O)(c2ccccc2)c2ccccc2)nc2ccc(C(=O)NCC(F)(F)C(N)=O)cc21 | 50 to 249 |
| CN1C[C@H](NC(=O)c2ccc3nc(C(O)(c4ccccc4F)c4ccccc4F)n(C)c3c2)CCC1=O | 50 to 249 |
| CCn1c(C(O)(c2ccccc2)c2ccccc2)nc2ccc(C(=O)N3CCC(O)C3)cc21 (configuration not stated) | > 1000 |
| CCOC(=O)C(F)(F)c1ccc2nc(C(O)(c3ccccc3)c3ccccc3)n(CC)c2c1 | 50 to 249 |
| CCn1c(C(O)(c2ccccc2)c2ccccc2)nc2ccc(Oc3ccccc3)cc21 | 250 to 1000 |
| CC(C)NC(=O)c1cccc(C(O)(c2ccccc2)c2nc3ccc(Cl)cc3n2C)c1 (configuration not stated) | 250 to 1000 |
| CCn1c(C(O)(c2ccccc2)c2ccccc2)nc2ccc(OCC(=O)N(C)C)cc21 | 250 to 1000 |
| CCn1c(C(O)(c2ccccc2)c2ccccc2)nc2ccc(OCCN(C)C(C)=O)cc21 | > 1000 |
| CCn1c(C(O)(c2ccccc2)c2ccccc2)nc2ccc(C(=O)NC3CC(F)(F)C3)cc21 | 250 to 1000 |
| COc1ccc2c(c1)nc(C(O)(c1ccccc1)c1ccccc1)n2C | 50 to 249 |
| CCOc1ccc2c(c1)nc(C(O)(c1ccccc1)c1ccccc1)n2C | 50 to 249 |
| CCn1c(C(O)(c2ccccc2)c2ccccc2)nc2ccc(OC)cc21 | 250 to 1000 |
| CNC(=O)c1ccc2nc(C(O)(c3ccccc3F)c3ccccc3F)n(C)c2c1 | 50 to 249 |
| COCCNC(=O)c1cccc(C(O)(c2ccccc2)c2nc3ccc(Cl)cc3n2C)c1 (configuration not stated) | > 1000 |
| CCn1c(C(OC)(c2ccccc2)c2ccccc2)nc2ccc(C(=O)NCC(F)(F)C#N)cc21 | 250 to 1000 |
| CCn1c(C(O)(c2ccccc2)c2ccccc2)nc2ccc(C(=O)N3CCC(N)C3)cc21 (configuration not stated) | > 1000 |
| Cc1ccc2nc(C(O)(c3ccccc3)c3ncccc3C)n(C)c2c1 (configuration not stated) | > 1000 |

| Compound | IC50 [nM] |
| --- | --- |
| CCn1c(C(O)(c2ccccc2)c2ccccc2)nc2ccc(N)cc21 | 50 to 249 |
| CCn1c(C(O)(c2ccc(F)cc2F)c2ccc(F)cc2F)nc2ccc(C(=O)NCCO)cc21 | 250 to 1000 |
| C[C@@H](O)CNC(=O)c1ccc2nc(C(O)(c3ccc(F)cc3F)c3ccc(F)cc3F)n(C)c2c1 | 250 to 1000 |
| CCn1c(C(O)(c2ccccc2)c2ccccc2)nc2ccc(OCCNC)cc21 | > 1000 |
| CCN1CCC[C@@H](NC(=O)c2ccc3nc(C(O)(c4ccccc4)c4ccccc4)n(CC)c3c2)C1 | 250 to 1000 |
| CCn1c(C(O)(c2ccccc2)c2ccc3cnn(C)c3c2)nc2ccc(C(=O)NC)cc21 (configuration not stated) | 50 to 249 |
| Cc1ccc2nc(C(O)(c3ccccc3)c3cccc(=O)n3C)n(C)c2c1 (configuration not stated) | > 1000 |
| CCn1c(C(O)(c2ccccc2)c2ccccc2)nc2ccc(OCC(=O)NC)cc21 | 250 to 1000 |
| CCn1c(C(O)(c2ccccc2)c2ccccc2)nc2ccc(C(=O)NC3CCN(C)CC3)cc21 | 250 to 1000 |
| CCn1c(C(O)(c2ccccc2)c2ccccc2)nc2ccc(C(=O)N3CCOCC3)cc21 | > 1000 |
| CCn1c(C(O)(c2ccccc2F)c2ccccc2F)nc2ccc(C(=O)N[C@@H]3CCC(=O)N(C)C3)cc21 | 50 to 249 |
| CCn1c(C(O)(c2ccccc2)c2ccccc2)nc2ccc(C3(O)CCOCC3)cc21 | > 1000 |
| CCn1c(C(O)(c2ccccc2)c2ccccc2)nc2ccc(C(=O)NCCOC)cc21 | 250 to 1000 |
| CCNC(=O)c1cccc(C(O)(c2ccccc2)c2nc3ccc(Cl)cc3n2C)c1 (configuration not stated) | > 1000 |
| CCn1c(C(O)(c2ccccc2F)c2ncccc2C)nc2ccc(CCCO)cc21 (configuration not stated) | 50 to 249 |
| C[C@@H](O)CNC(=O)c1ccc2nc(C(O)(c3ccccc3)c3ccccc3)n(CCF)c2c1 | 50 to 249 |
| CCn1c(C(O)(c2ccccc2)c2ccccc2)nc2ccc(C(=O)N3CCNCC3)cc21 | > 1000 |
| CCn1c(C(O)(c2ccccc2)c2ccccc2)nc2ccc(CNC(=O)COC)cc21 | 50 to 249 |
| CCn1c(C(O)(c2ccccc2)c2ccccc2)nc2ccc(C(=O)Nc3cn(C)cn3)cc21 | 50 to 249 |
| CCn1c(C(O)(c2ccccc2)c2ccccc2)nc2ccc(C(F)(F)C#N)cc21 | 250 to 1000 |
| CCn1c(C(O)(c2ccccc2)c2ccccc2)nc2c(F)cc(C(=O)NC)cc21 | 250 to 1000 |
| CCn1cc(-c2cc3c(cc2F)nc(C(O)(c2ccccc2)c2ccccc2)n3CC)cn1 | 50 to 249 |
